From publication PMC5983823, “Screening of Natural Product Derivatives Identifies Two Structurally Related Flavonoids as Potent Quorum Sensing Inhibitors against Gram-Negative Bacteria” (International Journal of Molecular Sciences, 2018)
Like-named read-outs stand apart in the source and are kept apart here.

What was measured:
C. violaceum ATCC 31532 [1] = test: Violacein extraction assay (QS-mediated violacein production); type: cell-based, Chromobacterium violaceum; settings: for inhibition at 400 µM: ATCC31532, 24 h, read-out: Inhibition-% of violacein production
Experimental: (§1) The initial screening of compound library was conducted using two strains of C. violaceum as model bacterium, and two assays (violacein extraction and resazurin staining) in parallel as recently optimized in [26]. For the screening assays, overnight cultures of C. violaceum were diluted in LB broth supplemented with yeast extract (LBY) (0.1% w/v, Sigma Aldrich, St. Louis, MO, USA). Culture of C. violaceum CV026 was further supplemented with 0.5 µM N-(β-ketocaproyl)-L-Homoserine lactone (3-O-C6-(L)-HSL, Cayman chemicals, Ann Arbor, MI, USA) to induce the violacein production. Bacteria (10^6 CFU/mL) was exposed to compounds (400 µM) in a total volume of 200 µL in 96-microtiter well plates (Nunc, Roskilde, Denmark), and incubated at 27 °C, with shaking at 200 rpm for 24 h. DMSO was added in untreated control wells and bacteria-free wells with only LBY were included controls. Additionally, autoinducer-free wells containing only bacteria were included in C. violaceum CV026 plates. Plates were prepared in duplicates. Quercetin dihydrate (Carl Roth GmbH, Karlsruhe, Germany) at 400 µM was used as positive control in violacein extraction assay, and azithromycin (Cayman chemicals, Ann Arbor, MI, USA) at 10 µM in viability assay. Both control compounds were prepared in DMSO. DMSO concentration was 2.5% throughout the experiments.
(§2) After incubation period of 24 h, plates were centrifuged (Allegra™ X-12R Benchtop centrifuge, Beckman Coulter Inc., Fullerton, CA, USA) at 3000 rpm for 10 min to precipitate the violacein. Supernatants were discarded from the wells by pipetting, and pellets were re-suspended in 200 μL of 96% ethanol by scraping and mixing followed by centrifugation (3000 rpm, 10 min). Thereafter, 100 μL of supernatants were transferred to sterile 96-microtiter well plates, and violacein was quantified by reading the optical density at 595 nm using Varioskan Flash. Inhibition of violacein production was expressed as inhibition percentages of the untreated biofilms (Equation (1)):Inhibition-% = [(untreated control OD595 − sample OD595)/(untreated control OD595 − media control OD595)] × 100%(1) in which untreated control = C. violaceum + DMSO, media control = LBY, and sample = C. violaceum treated with a compound. Later on, violacein extraction assay was also utilized for the determination of half inhibitory concentrations of the compounds.

C. violaceum CV026 = test: Violacein extraction assay (QS-mediated violacein production), mutant strain with exogenous autoinducer; type: cell-based, Chromobacterium violaceum; settings: for inhibition at 400 µM: Chromobacterium violaceum, CV026, 24 h, read-out: Inhibition-% of violacein production
Experimental: as §1, §2

C. violaceum ATCC 31532 [2] = test: Violacein extraction assay (QS-mediated violacein production); type: cell-based; settings: Chromobacterium violaceum
cancer cell lines = tested on: cancer cell lines; parameters: method as in ref 56 = [56]; 56. National Center for Biotechnology Information PubChem BioAssay Database Available online: https://pubchem.ncbi.nlm.nih.gov/bioassay/924 (accessed on 28 March 2018); settings: PubChem Bioassay database ref 56; cited from earlier work
[3] = tested on: human lung (HL) epithelial cells; test: Cytotoxicity testing (CellTiter Glo); type: cell-based; settings: 200 µM, 24 h exposure, positive control
Experimental: (§3) Human lung (HL) epithelial cells were grown in RPMI 1640 (Biowhittaker, Lonza, Viewers, Bornem, Belgium) supplemented with 10% inactivated fetal bovine serum (FBS), 2 mM L-glutamine and gentamycin 20 µg/mL, and mouse monocyte macrophage RAW 264.7 cells in DMEM medium supplemented with 10% FBS and 20 µg/mL gentamycin. Cells (3 × 10^5 cells/mL) were seeded into 96-microtiter well plates (Cellstar TC, Greiner Bio-One GmbH, Frickenhausen, Germany), 200 µL per well, and incubated at 37 °C in 5% CO2 24 h before exposure to the compounds. After the incubation, culture medium was discarded, the wells were washed with PBS, and the compound dilutions prepared in culture media were added as triplicates to a final volume of 200 µL. Usnic acid (200 µM, Sigma Aldrich, St. Louis, MO, USA) was included as positive control and DMSO (1%) as solvent control. Plates were incubated for additional 24 h. At the end of 24 h, media was removed, wells were washed twice with PBS and 100 µL of PBS was added. CellTiter Glo® reagent (Promega, Madison, WI, USA) was prepared according to manufacturer’s instructions, and 100 µL was added to the wells. The plates were shaken for two minutes and equilibrated at room temperature for 10 min prior to measuring the luminescence using Varioskan LUX multimode plate reader (Thermo Scientific, Vantaa, Finland). Inhibition of cell viability was calculated in relation to the untreated cells.

[4] = tested on: mouse monocyte macrophage (RAW 264.7) cells; test: Cytotoxicity testing (CellTiter Glo); type: cell-based; settings: 200 µM, 24 h exposure, positive control
Experimental: as §3

[5] = Chromobacterium violaceum, primary screening, 400 µM, 24 h, C. violaceum ATCC 31532
[6] = ATCC31532, 40 µM, C. violaceum ATCC 31532, mean ± SD of three independent tests, read-out: Inhibition-% of violacein production
[7] = ATCC31532, read-out: Inhibition-% of violacein production

With `CC(C)COc1ccc(C(=O)N/C(=C\c2ccccc2)C(=O)NCCNC(=O)/C(=C\c2ccccc2)NC(=O)c2ccc(OCC(C)C)cc2)cc1` [Compound 2, (2E)-N-[2-((2Z)-2-{[4-(2-methylpropoxy)phenyl]carbonylamino}-3-phenylprop-2-enoylamino)ethyl]-2-{[4-(2-methylpropoxy)phenyl]carbonylamino}-3-phenylprop-2-en amide] the inhibition at 400 µM (C. violaceum ATCC 31532 [1]; [5]) was 19%.
For `O=C(NCCCCCCNC(=O)/C(=C\c1ccccc1)NC(=O)c1ccccc1)/C(=C/c1ccccc1)NC(=O)c1ccccc1` [Compound 3, (2E)-N-{6-[(2Z)-3-phenyl-2-(phenylcarbonylamino)prop-2-enoylamino]hexyl}-3-phenyl-2-(phenylcarbonylamino)prop-2-enamide], the inhibition at 400 µM (C. violaceum ATCC 31532 [1]; [5]) was 41% and the inhibition at 400 µM (C. violaceum CV026) was 41.3%.
In the case of `Nc1ccn(C2OC(CO)C3OP(=O)(O)OC32)c(=O)n1` (stereo not drawn) [Compound 144, 8-(4-amino-2-oxohydropyrimidinyl)-3-hydroxy-6-(hydroxymethyl)-2,4,7-trioxa-3-phosphabicyclo[3.3.0]octan-3-one], the inhibition at 400 µM (C. violaceum ATCC 31532 [1]; [5]) is reported as 94.7%, the inhibition at 400 µM (C. violaceum CV026) is reported as 97.2% and the inhibition at 40 µM (C. violaceum ATCC 31532 [2]; [6]) is reported as 0%.
Compound `C=C(CBr)C1Cc2c(ccc3c2OC2COc4cc(OC)c(OC)cc4C2C3=O)O1` (stereo not drawn) [Compound 341, 2-[1-(bromomethyl)vinyl]-8,9-dimethoxy-1,2-dihydrochromano[3,4-b]furano[2,3-h]chroman-6-one] has an inhibition at 400 µM (C. violaceum ATCC 31532 [1]; Chromobacterium violaceum) of 93.4%, an inhibition at 400 µM (C. violaceum CV026) of 95.2% and an inhibition at 40 µM (C. violaceum ATCC 31532 [2]; [7]) of 26.9 ± 7.7%.
In the case of `O=c1c(O)c(-c2cccnc2)oc2ccc(Cl)cc12` [Compound 575, 6-chloro-3-hydroxy-2-(3-pyridyl)chromen-4-one], the inhibition at 400 µM (C. violaceum ATCC 31532 [1]; [5]) is given as 94.1%, the inhibition at 400 µM (C. violaceum CV026) is given as 94.3% and the Anti-cancer activity (cancer cell lines) is given as “not active”. For the same compound, the inhibition at 40 µM (C. violaceum ATCC 31532 [2]; [6]) was 60.9 ± 4.1%.
`COc1ccc2c(c1)c(CC(=O)NCCCN1CCCCC1)c(C)n2C(=O)c1ccc(Cl)cc1` [Compound 712, 2-{1-[(4-chlorophenyl)carbonyl]-5-methoxy-2-methylindol-3-yl}-N-(3-piperidylpropyl)acetamide] gave an inhibition at 400 µM (C. violaceum CV026) of 94.3%.
In the case of `C1COCCN1.COC(=O)C1=C(C)NC(S)=C(C#N)C1c1cc(OC)c(OC)c(OC)c1` (stereo not drawn) [Compound 1016, methyl 5-cyano-2-methyl-6-sulfanyl-4-(3,4,5-trimethoxyphenyl)-1,4-dihydropyridine-3-carboxylate, morpholine], the “Inhibition-% of violacein production” value (C. violaceum ATCC 31532 [1]; primary screening, 400 µM, 24 h, C. violaceum ATCC 31532) is reported as 34.1% and the “Inhibition-% of violacein production” value (C. violaceum CV026; primary screening, 400 µM, 24 h, C. violaceum CV026) is reported as 97.5%.
In the case of `Cc1cc(C(=O)NC(Cc2ccccc2)C(=O)O)c(C)o1` (stereo not drawn) [Compound 1214, 2-[(2,5-dimethyl(3-furyl))carbonylamino]-3-phenylpropanoic acid], the inhibition at 400 µM (C. violaceum CV026) is reported as 103%.
Compound `Cc1ccc2c(C)c(-c3ccc(Cl)cc3)c(=O)oc2c1` [Compound 1352] has an inhibition at 400 µM (C. violaceum ATCC 31532 [1]; [5]) of 18.8% and an inhibition at 400 µM (C. violaceum CV026) of 99.6%.
Compound `CCN(CC)C(=O)c1cc(=O)n(CC(=O)Nc2c(C)cc(C)cc2C)c2ccccc12` [Compound 1406, 2-[4-(N,N-diethylcarbamoyl)-2-oxohydroquinolyl]-N-(2,4,6-trimethylphenyl)acetamide] has an inhibition at 400 µM (C. violaceum ATCC 31532 [1]; [5]) of 40% and an inhibition at 400 µM (C. violaceum CV026) of 93.3%.
Compound `CCn1cnc2cc(NC(=O)c3cc(OC)c(OC)c(OC)c3)ccc2c1=O` [Compound 1508, N-(3-ethyl-4-oxo(3-hydroquinazolin-7-yl))(3,4,5-trimethoxyphenyl)carboxamide] has an inhibition at 400 µM (C. violaceum CV026) of 93.4%.
`COc1cc([C@H]2OC[C@@H]3C(c4ccc(OC5OC(COC6OC(C)C(O)C(O)C6O)C(O)C(O)C5O)c(OC)c4)OC[C@H]23)ccc1O` (stereo partly drawn) [Compound 1698, 2-[(6-{4-[(6S,1R,5R)-6-(4-hydroxy-3-methoxyphenyl)-3,7-dioxabicyclo[3.3.0]oct-2-yl]-2-methoxyphenoxy}-3,4,5-trihydroxy(2H-3,4,5,6-tetrahydropyran-2-yl))methoxy]-6-methyl-2H-3,4,5,6-tetrahydropyran-3,4,5-triol] gave an inhibition at 400 µM (C. violaceum ATCC 31532 [1]; [5]) of 91.3%, an inhibition at 400 µM (C. violaceum CV026) of 96.1% and an inhibition at 40 µM (C. violaceum ATCC 31532 [2]; [6]) of 2.6 ± 4.6%.
With `CCOc1ccc2oc(=O)cc(CN3CCNCC3)c2c1` [Compound 1852, 6-ethoxy-4-(piperazinylmethyl)chromen-2-one] the inhibition at 400 µM (C. violaceum ATCC 31532 [1]; [5]) was 29.7% and the inhibition at 400 µM (C. violaceum CV026) was 95.2%.
With `O=C(CSc1nc2c(=O)[nH]cnc2n1CC1CCCO1)Nc1ccc(F)c(Cl)c1` (stereo not drawn) [Compound 1905, N-(3-chloro-4-fluorophenyl)-2-[6-oxo-9-(oxolan-2-ylmethyl)hydropurin-8-ylthio] acetamide] the inhibition at 400 µM (C. violaceum ATCC 31532 [1]; [5]) was 4.7% and the inhibition at 400 µM (C. violaceum CV026) was 107%.
`Cc1sc(N)nc1-c1c[nH]c2ccccc12` [Compound 2307, 4-indol-3-yl-5-methyl-1,3-thiazole-2-ylamine] showed an inhibition at 400 µM (C. violaceum ATCC 31532 [1]; [5]) of 98.8%, an inhibition at 400 µM (C. violaceum CV026) of 98.6% and an inhibition at 40 µM (C. violaceum ATCC 31532 [2]; [6]) of 76.1 ± 3.3%.
Compound `COc1ccc(/C=C/C(=O)c2ccc(O)cc2C)cc1` [Compound 2372, (2E)-1-(4-hydroxy-2-methylphenyl)-3-(4-methoxyphenyl)prop-2-en-1-one] has an inhibition at 400 µM (C. violaceum ATCC 31532 [1]; [5]) of 18.3% and an inhibition at 400 µM (C. violaceum CV026) of 91.1%.
`NC(=O)CC1CCCCN1` (stereo not drawn) [Compound 2584, 2-(2-piperidyl)acetamide] gave an inhibition at 400 µM (C. violaceum ATCC 31532 [1]; [5]) of 20.5% and an inhibition at 400 µM (C. violaceum CV026) of 106%.
Compound `CCOc1ccc(C2NCCc3c2[nH]c2ccccc32)cc1` (stereo not drawn) [Compound 2666, 4-ethoxy-1-(1,2,3,4-tetrahydrobeta-carbolinyl)benzene] has an inhibition at 400 µM (C. violaceum CV026) of 90.8%.
In the case of `O=c1cc(C(Cl)(Cl)Cl)oc2ccccc12` [Compound 2712, 2-(trichloromethyl)chromen-4-one], the inhibition at 400 µM (C. violaceum CV026) is reported as 106%.
With `COc1ccccc1-c1c(C(F)(F)F)oc2cc(OC(=O)c3ccccc3F)ccc2c1=O` [Compound 2909, 3-(2-methoxyphenyl)-4-oxo-2-(trifluoromethyl)chromen-7-yl 2-fluorobenzoate] the inhibition at 400 µM (C. violaceum ATCC 31532 [1]; [5]) was 12.1% and the inhibition at 400 µM (C. violaceum CV026) was 99.9%.
`O=C(CCc1cccc(F)c1)NC(CO)C(O)c1ccccc1` (stereo not drawn) [Compound 2916, 3-(3-fluorophenyl)-N-[2-hydroxy-1-(hydroxymethyl)-2-phenylethyl]propanamide] showed an inhibition at 400 µM (C. violaceum ATCC 31532 [1]; [5]) of 19.7% and an inhibition at 400 µM (C. violaceum CV026) of 98.3%.
With `O=c1c(O)c(-c2ccc(O)c(O)c2)oc2cc(O)cc(O)c12` [Que, quercetin, reference compound] the inhibition at 400 µM (C. violaceum ATCC 31532 [1]; Chromobacterium violaceum) was 99.7%, the IC50 (C. violaceum ATCC 31532 [1]; Chromobacterium violaceum, ATCC31532, read-out: IC50 of violacein production) was 3.1 µM and the inhibition at 400 µM (C. violaceum CV026) was 98.9%. It also gave an inhibition at 40 µM (C. violaceum ATCC 31532 [2]; [7]) of 91.8 ± 2.3%.
In the case of `CC(=O)c1c(O)c(C)c(O)c2c1OC1=CC(=O)C(C(C)=O)C(=O)C12C` (stereo not drawn) [Usnic acid, reference compound], the “Inhibition-% of cell viability” value [3] is reported as 90.0 ± 4.7% and the “Inhibition-% of cell viability” value [4] is reported as 98.5 ± 0.6%.
